The values below come from article PMC10545732, “Structure-based drug discovery of a corticotropin-releasing hormone receptor 1 antagonist using an X-ray free-electron laser” (Experimental & Molecular Medicine, 2023).

As usually defined, the AUC(0-t) is the area under the concentration-time curve up to a stated or last time point. The low end stands for low exposure, the high end for high exposure. A word on the half-life: it is the time needed for the level to fall by half in the phase considered. Read a high half-life as slow decline. The term Cmax denotes the maximum level reached in the sampled fluid or tissue. In general, Tmax refers to the time at which the peak concentration occurs. As usually defined, the bioavailability is dose-corrected exposure relative to a reference, in per cent. In general, IC50 refers to the concentration at which inhibition is half-maximal.

Data set [1] is described as follows: In vitro BBB permeability assay. The format is in vitro ADME, human. The settings on record: human; 10 μM apical, 12-h incubation, hCMEC/D3 monolayer; read-out: permeability coefficient. How it is done:
(§1) Human cerebral microvascular endothelial cells (hCMECs/D3, SCC066; Sigma-Aldrich) were used to assess the permeability of CRF1R antagonists across the BBB. hCMECs were seeded on Falcon^TM cell culture inserts (08-770, Fisher Scientific) with 0.4 μm pore sizes precoated with collagen type I from rat tails (354236, Corning) at a density of 50,000 cells/mL in endothelial cell growth medium-2 (EGM-2, CC-3162; Lonza). The medium was changed with EGM-2 every three to four days for proliferation and with EGM-2 containing 2.5% human serum (SLBX6020, Sigma-Aldrich) for differentiation. Cell culture inserts were transferred into 24-well plates containing 700 μL of EGM-2 in each well (basolateral compartment) for the permeability assay. The medium in the inserts (apical compartment) was then replaced with 300 μL EGM-2 containing 10 μM BMK-C203 or BMK-C205. Apical and basolateral compartments were collected after a 12-h incubation at 37 °C, and drug concentrations were measured using HPLC. For sample preparation, 50 μL of the sample was mixed with 10 μL of an internal standard solution (d4-cortisol). Subsequently, 50 μL of acetonitrile was added, and the mixture was centrifuged at 16,000×g for 10 min for protein precipitation. The supernatants were used for LC‒MS analysis with a triple quadrupole mass spectrometer coupled with HPLC using a C18 reversed-phase column. The concentration of the antagonists was determined using a calibration curve. The permeability coefficient (P) was calculated according to Pardridge et al.[34]. The permeability-surface area product (PS, in cm^3/s) was divided by the filter surface area A (in cm^2) using Eq. (1) as follows:1 Pcm/s=Vd×△Ma/A×[…]×△t where Vd is the volume in the donor compartment in cm^3, ΔMa is the total amount of the compound in the […] compartment after t seconds, Md is the donor amount, Δt is the incubation time, and A is the filter area in cm^2.

Data set [2] can be described thus: Microsomal stability assay, human liver microsomes. It is filed as in vitro ADME. The settings on record: for Liver microsomal stability, Human (percentage remaining after 30 min): 1 μM, n = 3; for metabolic stability improved by: human and rat liver microsomes, 30 min. How it is done:
LC‒MS/MS was performed on a TSQ Vantage (Thermo, USA) coupled with a Nexera XR LC system (Shimadzu, Japan)[32]. The separation was performed on a Kinetex C18 column (2.1 × 100 mm, 2.6 µm, Phenomenex, USA) using a mobile phase of 0.1% formic acid and acetonitrile containing 0.1% formic acid. A gradient program was used for elution at a flow rate of 0.3 mL/min. The data were acquired using multiple-reaction monitoring (MRM) in positive mode.
(In general: Liver microsomes are a subcellular fraction often used to study metabolism.)

A further data set addresses CYP2D6 (Homo sapiens, UniProt P10635). The data set is described as follows: CYP inhibition assay CYP2D6 (dextromethorphan O-demethylase). The settings on record: 10 μM, human liver microsomes, n = 3.
A further data set can be described thus: PK studies in rats. The settings on record: for AUC(0-t) / half-life / Cmax / Tmax / bioavailability: male, Sprague-Dawley, rat, plasma, SD rats, n = 3. The format is in vivo, SD rats. How it is done:
CRF1R antagonist PKs were studied in naïve male SD rats following a single i.v. bolus injection or p.o. gavage. The i.v. injections used Antalarmin, BMK-C203, or BMK-C205 at doses of 5 mg/kg and BMK-I-152 at a dose of 1 mg/kg. The antagonist’s doses in the p.o. injection was 10 mg/kg. Three male SD rats weighing between 220 and 260 g were used to evaluate CRF1R antagonist PKs. The vehicle used for all dose groups was […]: TPGS: PEG400 (70%:20%:10%). Blood samples were collected from all treatment groups at 0 h (predose), 0.083, 0.25, 0.5, 1, 2, 4, 6, 8, and 24 h after dosing. Antalarmin, BMK-I-152, BMK-C203, and BMK-C205 concentrations in the plasma samples were determined via LC‒MS/MS (LLOQ was 1 ng/mL for CRF1R antagonists). PK parameter estimates were determined using the serial time-course profiles for plasma concentrations of three male rats per group via noncompartmental analysis using commercially available software (Phoenix WinNonlin, version 8.1, Pharsight Corporation, Mountain View, CA).

The target of a further data set is T1, CRF1R (Homo sapiens, UniProt P34998).
T1 construct: HEK-Gα15 cells (Eurofins Scientific) transfected with CRF1R; host or cells: HEK-Gα15 cells
T1 sequence (P34998 24-415): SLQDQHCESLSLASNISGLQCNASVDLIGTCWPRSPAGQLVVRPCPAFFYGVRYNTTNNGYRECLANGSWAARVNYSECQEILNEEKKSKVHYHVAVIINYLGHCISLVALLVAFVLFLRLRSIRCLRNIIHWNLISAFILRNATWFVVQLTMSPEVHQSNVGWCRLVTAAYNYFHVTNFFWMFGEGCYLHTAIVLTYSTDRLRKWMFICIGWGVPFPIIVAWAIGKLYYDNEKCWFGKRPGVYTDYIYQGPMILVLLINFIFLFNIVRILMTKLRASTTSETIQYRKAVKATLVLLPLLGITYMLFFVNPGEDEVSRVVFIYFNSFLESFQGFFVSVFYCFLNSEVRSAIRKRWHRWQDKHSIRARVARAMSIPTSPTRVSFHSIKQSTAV
The data set is described as follows: Calcium mobilization assay (hCRF1R Ca2+ antagonism). The format is cell-based. Conditions: for IC50: HEK-Gα15 cells transfected with CRF1R, urocortin 2 nM, n = 3. Here is the method:
HEK-Gα15 cells (Eurofins Scientific) transfected with CRF1R were plated in 96-well plates at a density of 50,000 cells/100 μL per well and incubated overnight. The next day, the cells were incubated with a Calcium 6 reagent (Molecular Devices) containing 0.5 mM probenecid (Sigma) at 37 °C for 1 h before adding compounds or dimethyl sulfoxide DMSO (positive and negative control; final concentration 0.1%). After incubation at 37 °C for 1 h, 50 μL urocortin (final concentration 2 nM) (Tocris) was dispensed into the well with FLIPR-tetra (Molecular Devices). […] Intracellular calcium changes were recorded at excitation and emission wavelengths of 470–495 and 515–575 nm, respectively. Relative fluorescence units (RFU) were calculated as the fluorescence signal maximum minus the signal minimum for 30 s after addition. The graphs and IC50 concentrations were calculated using GraphPad Prism 6 software.
(Calcium assays in cells follow changes in intracellular calcium, usually with a dye or a luminescent sensor.)

In the next data set the test system is hCMECs/D3. The data set is described as follows: In vitro BBB permeability assay. The format is in vitro ADME, human. How it is done: as §1

A value given as a limit tells only on which side of the number the result lay.

CYP2D6, sequence (P10635 whole entry): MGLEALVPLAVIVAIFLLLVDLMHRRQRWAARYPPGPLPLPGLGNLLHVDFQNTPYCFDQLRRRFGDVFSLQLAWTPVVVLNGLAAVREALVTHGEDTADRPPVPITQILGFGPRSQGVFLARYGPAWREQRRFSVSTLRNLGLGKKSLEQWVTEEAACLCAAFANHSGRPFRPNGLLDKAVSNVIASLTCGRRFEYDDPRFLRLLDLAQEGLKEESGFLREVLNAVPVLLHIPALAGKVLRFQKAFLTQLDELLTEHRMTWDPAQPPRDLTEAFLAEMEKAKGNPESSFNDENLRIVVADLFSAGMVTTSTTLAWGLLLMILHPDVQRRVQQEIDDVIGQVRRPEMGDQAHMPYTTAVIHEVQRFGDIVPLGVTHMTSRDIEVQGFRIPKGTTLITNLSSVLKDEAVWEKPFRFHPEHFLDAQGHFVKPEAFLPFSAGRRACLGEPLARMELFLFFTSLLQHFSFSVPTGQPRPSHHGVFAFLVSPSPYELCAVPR
Procedure for CYP2D6: Phenacetin O-demethylase, diclofenac 4-hydroxylase, S-mephenytoin 4-hydroxylase, dextromethorphan O-demethylase, and midazolam 1’-hydroxylase activities were determined as probe activities for CYP1A2, CYP2C9, CYP2C19, CYP2D6, and CYP3A4, respectively, using cocktail incubation. […] The cocktail incubation mixtures consisted of 0.25 mg/mL human liver microsomes, 0.1 M phosphate buffer (pH 7.4), an NADPH regeneration system, and inhibitors (CRF1R antagonist compounds, 10 µM) in a total volume of 100 μL. The final volume of the organic solvents in the incubation mixture was 1% (v/v). […] All incubations were performed in triplicate, and the mean values were used for analysis. The samples were then centrifuged at 15,000 rpm for 5 min at 4 °C. […] The CYP-mediated activities in the presence of inhibitors were expressed as percentages of the corresponding control values.

For `COc1cc(Br)cc(OC)c1-c1c(C)nn2c(N(CCCC(F)(F)F)CCCC(F)(F)F)nc(C)nc12` [BMK-C203], the Papp at 12 h, 10 µM in data set [1] came out at 0.0296 ×10⁻⁶ cm/s. In data set [2], the “Liver microsomal stability, Human (percentage remaining after 30 min)” value was found to be 88.3 ± 16.71% and the “metabolic stability improved by” value is “more than 90%”. At CYP2D6, the “CYP2D6, percentage of control activity” value was > 100 ± 4.0 percentage of control activity. In “PK studies in rats” (iv, I.V, 5 mg/kg), this compound showed an AUC(0-t) of 20600 ng·h/mL and a half-life of 4.76 h. For the same compound, in “PK studies in rats” (po, P.O, 10 mg/kg), the AUC(0-t) is 16100 ng·h/mL, the concentration peaked (Cmax) at 1370 ng/mL, the Tmax worked out at 4.67 h and the bioavailability is 39.5%. The same compound had a half-life in the data set “PK studies in rats” (po, P.O, 10 mg/kg) of 4.22 h. Also, the IC50 on CRF1R stood at 280 nM.
As to `CCCCN(CC1CC1)c1nc(C)nc2c(-c3c(OC)cc(Br)cc3OC)c(C)nn12` [BMK-C205], the “permeability coefficient relative to BMK-C203” value with hCMECs/D3 is on record as “seven times higher”. The Papp at 12 h, 10 µM in data set [1] is 0.211 ×10⁻⁶ cm/s. In data set [2], the “Liver microsomal stability, Human (percentage remaining after 30 min)” value worked out at 88.0 ± 4.50% and the “metabolic stability improved by” value was “more than 90%”. Besides, on CYP2D6, the “CYP2D6, percentage of control activity” value was > 100 ± 3.8 percentage of control activity. In addition, the “serum concentration relative to BMK-C203” value in the data set “PK studies in rats” (2 h after oral administration in the PK test) is “twice as high”. Besides, in the data set “PK studies in rats” (iv, I.V, 5 mg/kg), the AUC(0-t) stood at 22900 ng·h/mL and the half-life was 6.5 h. In “PK studies in rats” (po, P.O, 10 mg/kg), the AUC(0-t) is 9880 ng·h/mL, the Cmax came to 2400 ng/mL, the Tmax worked out at 2 h and the bioavailability is 21.6%. The same compound gave a half-life in the data set “PK studies in rats” (po, P.O, 10 mg/kg) of 3.87 h. Also, the IC50 at CRF1R was 74 nM. For the same compound, the “IC50 relative to BMK-C203” value at CRF1R (hCRF1R Ca2+ antagonism assay) is “fourfold lower”.
